Laboratory results from PubChem BioAssay (NCI).
“And” between values parts separate entries of the source, which are not always exact repeats. Equal values may be shown once.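 Dose response: 5 concentrations. Exposure: 48 h. Format: 96-well plates. Endpoint: linear interpolation; highest concentration if not reached. Abbreviation: GI50, concentration required for 50% inhibition of growth. TGI: total growth inhibition.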

What was measured:
Assay in all cases: growth of human tumour cells (NCI), 48 h
[1] = tested on: BT-549 breast
[2] = tested on: COLO 205 colon
[3] = tested on: MDA-MB-231 breast
[4] = tested on: MDA-MB-435
[5] = tested on: OVCAR-5 ovarian
[6] = tested on: SK-OV-3 ovarian
[7] = tested on: SW-620 colon
[8] = tested on: U251 CNS
[9] = tested on: UACC-62 melanoma
[10] = tested on: UO-31 renal

Row | SMILES | GI50 [1] | TGI [1] | GI50 [2] | TGI [2] | GI50 [3] | TGI [3] | GI50 [4] | TGI [4] | GI50 [5] | TGI [5] | GI50 [6] | TGI [6] | GI50 [7] | TGI [7] | GI50 [8] | TGI [8] | GI50 [9] | TGI [9] | GI50 [10] | TGI [10]
1 | COc1ccc(S(=O)(=O)N2CC(C)(C)CN(S(=O)(=O)c3ccc(OC)cc3)C2C(=O)NO)cc1 | > 20 µM | > 20 µM | > 20 µM | > 20 µM | > 16.2 µM | > 20 µM | > 20 µM | > 20 µM | > 20 µM | > 20 µM | > 20 µM | > 20 µM | > 20 µM | > 20 µM | > 20 µM | > 20 µM | > 19.2 µM | > 20 µM | > 11.5 µM | > 20 µM
2 | CN[C@H]1C=C[C@@H]2/C=C(C)/C=C/[C@@H](C)[C@H]([C@H](C)[C@H](O)[C@@H](C)NC(C)=O)OC(=O)/C=C/C=C(C)\C=C\[C@]2(C)C1 | 0.0049 µM | > 49 µM | 0.00815 µM | 8.64 µM | 0.0049 µM | 9.97 µM | < 0.001 µM and 0.0049 µM | 9.14 µM | 10.3 µM | > 49 µM | < 0.001 µM | – | 0.00655 µM | > 49 µM | < 0.001 µM and 0.0049 µM | > 49 µM | 0.022 µM | 19.7 µM | 0.00994 µM | > 49 µM
3 | O=C(CC(c1ccccc1)c1c(O)c2ccccc2oc1=O)c1ccccc1 (stereo unspecified) | – | > 100 µM | – | > 100 µM | – | > 100 µM | – | > 100 µM | – | > 100 µM | – | > 100 µM | – | > 100 µM | – | > 100 µM | – | > 100 µM | – | > 100 µM
4 | CN(C)CCCOc1ccc(-c2ccc3ncc4c(c3c2)n(C2CCOCC2)c(=O)n4C)cn1 | 1.32 µM | 8.99 µM | 0.825 µM | 3.28 µM | 1.31 µM | 11.7 µM | 1.65 µM | 11.3 µM | 1.49 µM | 30.4 µM | 0.514 µM | 4.19 µM | 2.81 µM | 21.1 µM | 4.52 µM | 18.9 µM | 2.73 µM | 13.8 µM | 0.494 µM | 5.89 µM
5 | COC(=O)[C@@H](C)C[C@H](Cc1ccccc1)NC(=O)c1csc(CC[C@H](C(C)C)N(C)C(=O)[C@@H](NC(=O)[C@H]2CCCCN2C)C(C)C)n1 | 0.179 µM | 3.81 µM | 0.19 µM | 1.53 µM | 0.318 µM | > 8.8 µM | 0.0407 µM | 0.17 µM | 1.26 µM | > 33.3 µM | 0.451 µM | > 33.3 µM | 0.164 µM | > 33.3 µM | 0.398 µM | > 33.3 µM | 0.14 µM | > 33.3 µM | 1.66 µM | > 33.3 µM
6 | CC[N+](CC)=c1sc2c(s1)C(c1ccc(Cl)cc1)Oc1ccc(Cl)cc1-2 (stereo unspecified) | 0.749 µM | 2.31 µM | 1.65 µM | 3.77 µM | 1.93 µM | 4.35 µM | 2.04 µM | 4.66 µM | 2.32 µM | 6.11 µM | 2.51 µM | 8.72 µM | 1.08 µM | 2.72 µM | 0.374 µM | 1.37 µM | 1.65 µM | 4.14 µM | 2.82 µM | 15.4 µM
7 | S=C(Nc1ccc(Br)cc1)Nc1ccc(Br)cc1 | 44.2 µM | > 100 µM | 7.82 µM | > 100 µM | 25.5 µM | > 100 µM | 6.04 µM | > 100 µM | > 100 µM | > 100 µM | > 100 µM | > 100 µM | 4.43 µM | > 100 µM | 8.39 µM | > 100 µM | 3.52 µM | > 100 µM | 12.7 µM | > 100 µM
8 | CCCC(=O)NC1=C(Cl)C(=O)c2ccccc2C1=O | – | 16.7 µM | – | 3.83 µM | – | 17.4 µM | – | 13.3 µM | – | 15.4 µM | – | 27.1 µM | – | 6.36 µM | – | 15.3 µM | – | 10.3 µM | – | 8.99 µM
9 | Cc1ccc(S(=O)(=O)NC(=O)C2C(=O)CC3(CCCCC3)CC2=O)cc1 | – | 75 µM | – | 32.2 µM | – | > 100 µM | – | > 100 µM | – | > 100 µM | – | > 100 µM | – | 84.7 µM | – | > 100 µM | – | 83.8 µM | – | 60.4 µM
10 | CCC[CH2][Sn]([CH2]CCC)([CH2]CCC)[O]c1ccc(Cl)cc1Cl | 0.154 µM | 0.315 µM | 0.16 µM | 0.31 µM | 0.122 µM | 0.284 µM | 0.139 µM | 0.29 µM | 0.14 µM | 0.298 µM | 0.137 µM | 0.276 µM | 0.131 µM | 0.279 µM | 0.146 µM | 0.297 µM | 0.162 µM | 0.357 µM | 0.0572 µM | 0.203 µM
11 | C=C1C(=O)O[C@@H]2C[C@@H](C)[C@@H]3C=CC(=O)[C@@]3(C)[C@@H](OC(=O)CC(=O)O[C@H]3[C@@H]4C(=C)C(=O)O[C@@H]4C[C@@H](C)[C@@H]4C=CC(=O)[C@]43C)[C@H]12 | – | 0.161 µM | – | 0.0403 µM | – | 1.32 µM | – | 0.144 µM | – | 0.39 µM | – | 0.785 µM | – | 0.0326 µM | – | 0.149 µM | – | 0.0716 µM | – | 0.271 µM
12 | [Cl][Hg][Cl] | 20.3 µM | 34.8 µM | 10.3 µM | 24.6 µM | 17.1 µM | 31.7 µM | 15.7 µM | 30.2 µM | 19.3 µM | 33.6 µM | 20.2 µM | 34.5 µM | 5.4 µM | 40.2 µM | 6.25 µM | 19.8 µM | 13.2 µM | 27.3 µM | 22.7 µM | 37.2 µM
13 | COC(=O)CCc1c[nH]c2ccc(N(CCCl)CCCl)cc12 | 8.52 µM | 41.5 µM | 3.5 µM | 19.4 µM | 20.1 µM | > 92.4 µM | 8.98 µM | 25.9 µM | 5.32 µM | 46.1 µM | 1.93 µM | 33.5 µM | 3.41 µM | 37 µM | 1.31 µM | 25.1 µM | 1.72 µM | 16.6 µM | 4.81 µM | > 42.6 µM
14 | Cc1nn(-c2nc3ccccc3[nH]2)c(N)c1-c1ccc(Cl)cc1 | 12.9 µM | > 100 µM | 4.17 µM | > 100 µM | 4.5 µM | > 100 µM | 4.6 µM | > 100 µM | 46.7 µM | > 100 µM | 7.4 µM | > 100 µM | 4.58 µM | > 100 µM | 3.18 µM | > 100 µM | 5.9 µM | > 100 µM | 3.79 µM | > 100 µM
15 | CC(=O)OCC1OC(n2c(-c3ccc(Cl)cc3)ccc(C#N)c2=S)C(OC(C)=O)C(OC(C)=O)C1OC(C)=O (stereo unspecified) | 15.9 µM and 35 µM | 38.9 µM and > 100 µM | > 100 µM and 49.5 µM | > 100 µM | 10.2 µM and 42.9 µM | 47.1 µM and > 100 µM | – | > 100 µM | – | > 100 µM | 16.4 µM and 47.9 µM | 44.9 µM and > 100 µM | – | > 100 µM | 10.4 µM and 61.4 µM | 40 µM and > 100 µM | – | > 100 µM | – | > 100 µM
16 | Nc1ccc(C2=NN(c3ccccc3)C(c3ccc(Cl)cc3)C2)cc1 (stereo unspecified) | 2.21 µM | 5.32 µM | 2.15 µM | 4.54 µM | 2.38 µM | 6.98 µM | 2.51 µM | 6.58 µM | 10.6 µM | 24.8 µM | 9.09 µM | 29.9 µM | 1.67 µM | 3.35 µM | 1.47 µM | 2.79 µM | 3.12 µM | 12.9 µM | 1.54 µM | 3.06 µM
17 | COc1ccc(-c2cc(=O)c3ccc(C)nc3[nH]2)cc1 | – | > 100 µM | – | > 100 µM | – | > 100 µM | 42.7 µM | > 100 µM | – | > 100 µM | – | > 100 µM | – | > 100 µM | > 100 µM | > 100 µM | – | > 100 µM | – | > 100 µM
18 | OCc1ccc(-c2ccc(-c3ccc(CO)o3)[se]2)o1 | 46.4 µM | > 100 µM | 60.2 µM | > 100 µM | > 83.7 µM | > 100 µM | 42.5 µM | > 100 µM | 0.629 µM | > 100 µM | > 100 µM | > 100 µM | > 100 µM | > 100 µM | > 76.4 µM | > 100 µM | 8.72 µM | > 100 µM | > 95.3 µM | > 100 µM
19 | CCOc1ccc2nc(SCc3nc4n(n3)S(=O)(=O)c3ccccc3N4C)sc2c1 | 59.3 µM | > 100 µM | > 100 µM | > 100 µM | 73.1 µM | > 100 µM | > 100 µM | > 100 µM | > 100 µM | > 100 µM | > 100 µM | > 100 µM | > 100 µM | > 100 µM | 68.5 µM | > 100 µM | > 100 µM | > 100 µM | > 100 µM | > 100 µM
20 | COc1ccc(-c2cn[nH]c2-c2cc(OC)c3c(c2)OCO3)cc1 | 2.26 µM | 25.8 µM | 0.164 µM | 0.768 µM | 0.643 µM | 8.35 µM | 0.0267 µM | 0.0838 µM | 1.34 µM | 36.6 µM | 0.386 µM | 5.45 µM | 0.141 µM | 23.2 µM | 0.321 µM | 10.7 µM | 0.397 µM | 14.9 µM | 0.669 µM | 23.1 µM
